From patent US20070213278A1, “Arrays with cleavable linkers” (priority 2004, published 2007)
Marks after values point to notes of the source that are not given here.

Assays:
[1] = test system: 2G12 anti-HIV antibody; assay: 2G12 binding to glycan array printed on glass slide; design: species or system human; conditions: for 2G12 binding on glycan array: initial experiments; for Rel. spec. (relative binding activity of 2G12): glycan array on glass slide, 2G12 pre-complexed with anti-IgG-FITC
Excerpt: The natural high mannose type N-glycans used for the analysis were purified from pronase treated bovine ribonuclease B on Dionex. Each preparation was a single molecular weight species as determined by MALDI-MS.
Construction of a glycan array printed on a glass slide: The library of carbohydrate structures was obtained through chemical and chemo-enzymatic synthesis as described above, as well as natural sources. This compound library contained a N-hydroxy succinimide (NHS)-reactive primary amino group, which was printed on a commercial NHS-activated glass surface (Accelr8 Technology Corporation, Denver, Colo.) using a microarray gene printer (TSRI).
Each glycan type was printed (≈0.5 nL/spot) at various concentrations (10-100 μM) and each concentration in a replicate of six. Slides were further incubated with ethanolamine buffer to deactivate remaining NHS functional groups.
The 2G12 antibody was pre-complexed (for 10 min) with secondary human anti-IgG-FITC (2:1, 20 μg/mL) prior to application to the glycan array. After incubation with the 2G12 antibodies, the array washed by dipping the slide in buffer and water.

[2] = biological target: T1, chST6GalNAc-I (Gallus gallus, UniProt Q92183); assay: chST6GalNAc-I activity on small acceptor molecules; assay type: biochemical, chicken; conditions: α-D-galacto derivatives as acceptors
T1 construct: made in house; host or cells: insect cells
T1 sequence (Q92183 whole entry): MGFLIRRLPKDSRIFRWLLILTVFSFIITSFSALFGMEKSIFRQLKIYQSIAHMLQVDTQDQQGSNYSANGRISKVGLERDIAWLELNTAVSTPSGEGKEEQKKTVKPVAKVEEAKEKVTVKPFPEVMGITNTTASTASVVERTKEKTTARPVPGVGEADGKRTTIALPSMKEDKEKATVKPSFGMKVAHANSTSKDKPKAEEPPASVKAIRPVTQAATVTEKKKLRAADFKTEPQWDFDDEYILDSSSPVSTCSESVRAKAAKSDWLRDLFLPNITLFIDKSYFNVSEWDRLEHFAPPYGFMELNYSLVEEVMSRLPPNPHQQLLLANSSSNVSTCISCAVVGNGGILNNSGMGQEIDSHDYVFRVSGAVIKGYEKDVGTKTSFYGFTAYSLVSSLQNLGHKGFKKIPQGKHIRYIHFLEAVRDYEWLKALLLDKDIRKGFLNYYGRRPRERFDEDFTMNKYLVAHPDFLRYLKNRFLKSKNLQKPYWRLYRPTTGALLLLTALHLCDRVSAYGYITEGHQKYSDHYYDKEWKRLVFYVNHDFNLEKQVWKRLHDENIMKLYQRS
Excerpt: The inventors have previously reported the cloning, expression, and characterization of chicken ST6GalNAc-I and its use in preparative synthesis of the O-linked sialoside antigens, STn-, α(2-6)SiaT-, α(2-3)SiaT- and Di-SiaT-antigen. Blixt, O.; Allin, K.; Pereira, L.; Datta, A. and Paulson, J. C., J. Am. Chem. Soc. 2002, 124, 5739-5746. Briefly, the recombinant enzyme was expressed in insect cells and purified by CDP-sepharose affinity chromatography to generate approximately 10 U/L of cell culture.

[3] = test system: 2G12 binding to gp120JR-CSF; assay: Solution phase ELISA, oligomannose inhibition of 2G12 binding to gp120; design: species or system human; conditions: oligomannose at 0.5 mM
Description: Enzyme-linked immunosorbent assay. Microtiter plate wells (flat bottom, Costar type 3690; Corning Inc.) were coated with 50 ng/well gp120JR-CSF overnight at 4° C. All subsequent steps were performed at room temperature. The wells were then washed four times with PBS/0.05% (vol/vol) Tween20 (Sigma) using a microplate washer (SkanWash 400, Molecular Devices) prior to blocking for 1 hr with 3% (mass/vol) BSA. IgG 2G12, diluted to 0.5 μg/mL (25 ng/well) with 1% (mass/vol) BSA/0.02% (vol/vol) Tween20/PBS (PBS-BT), was then added for 2 hrs to the antigen-coated wells in the presence of serially-diluted oligomannoses starting at 2 mM.
Unbound antibody was removed by washing four times, as described above. Bound 2G12 was detected with an alkaline phosphatase-conjugated goat anti-human IgG F(ab′)2 antibody (Pierce) diluted 1:1000 in PBS-BT. After 1 hr, the wells were washed four times and bound antibody was visualized with p-nitrophenol phosphate substrate (Sigma) and monitored at 405 nm.
Solution Phase ELISA Assay Analysis of Oligomannose 1-8 Inhibition of 2G12 Binding. Man9GlcNAc2 1 and deprotected oligomannoses 2-6 and 7-9 (see FIG. 17) were evaluated for their ability to inhibit the interaction between 2G12 and gp120 in a solution phase enzyme-linked immunosorbent assay (ELISA). […]

[4] = test system: 2G12 antibody; assay: 2G12 binding, cleavable linker glycan array in microtiter plates (Example 10); design: species or system human; conditions: for 2G12 epitope / affinity: cleavable linker array
Description: Cleavable Linker Glycan Array in Microtiter Plates: Further experiments were performed using glycans immobilized within microtiter wells with the cleavable triazole linkers described in Example 7 as shown in FIG. 11.
2G12 Binding: After washing with QH2O, wells were blocked with 10 mM HEPES buffer, pH 7.5/150 mM NaCl buffer (200 μL) containing 0.1% Tween-20 over 1 h at 4° C. The buffer was then removed and 2G12 (17 μg/mL PBS buffer; 200 μL) was incubated in the well over 1 h at 4° C. Wells were then washed with PBS buffer (3×; 200 μL) and fluorescein-conjugated Goat Anti-Human IgG antibody (14 μg/mL PBS buffer; 200 μL) was incubated in the well over 1 h in the dark at 4° C. Wells were then washed with PBS buffer (3×; 200 μL) and fluorescence was measured with an excitation wavelength of 485 nm and emission wavelength of 535 nm.
Further studies were performed using a cleavable linker array to clarify the types of mannose-containing glycans bound by the 2G12 anti-HIV antibodies. […] The results of a binding study using increasing amounts of labeled Manα1,2Manα1,3Manα1,2 Manα1,6Man glycan with a constant amount of 2G12 antibody are shown in FIG. 16.

[5] = test system: 2G12 antibody; assay: Carbohydrate microarray analysis, microtiter plate, oligomannose-2G12 dissociation constants (Example 11); assay type: binding, human; conditions: microtiter plate array
Description: Carbohydrate microarray analysis. Ninety-six well NHS-coated microtiter plates (NoAb Biodiscoveries) were treated with 200 μL of a 1 mM methanolic solution of the amino-functionalized disulfide and alkyne containing linker (scheme V) containing 5% diisopropylethylamine (DIEA) and incubated overnight at 4° C. The microtiter plate was then washed with 2×200 μL methanol and 2×200 μL water. Next, 200 μL solutions of azido-functionalized oligomannose derivatives 21-25 at varying concentrations from 0 to 500 μM in 5% DIEA/methanol were introduced. A sprinkle of copper (I) iodide was added and the contents were allowed to react overnight at 4° C. The next day, the contents were removed and the plates were washed with 2×200 μL methanol and 2×200 μL water. The plates were then blocked with 0.1% Tween20 solution in HEPES buffer pH 7.5 at 4° C. for 1 hour and then washed with 3×200 μL HEPES buffer. […] Detection of the FITC-tagged secondary antibody was performed in 200 μL water using a fluorescence plate reader. […]
Carbohydrate Microarray Analysis. […] Kd values for the interaction of 2G12 with oligomannoses 4, 5, 7, 8, 9 (Table 9) were determined using a microtiter-based assay with detection via a fluorescent secondary antibody (see Bryan et al.(2004) J. Am. Chem. Soc. 126, 8640-41).

Row | Compound | Rel. spec. (relative binding activity of 2G12) [1] | chST6GalNAc-I activity, cpm [2] [cpm] | chST6GalNAc-I activity, nmol/mg × min^−1 [2] | further results
1 | Man-8#aa Man8-aminoacid [Glycan 144] |  |  |  | 2G12 binding on glycan array [1]: Binding was observed
2 | O=[N+]([O-])c1ccc(O[C@@H]2OC(CO)[C@@H](O[C@@H]3OC(CO)[C@H](O)[C@H](O)C3O)[C@H](O)C2O)cc1 (some centres unmarked) [Compound 5] | − (− = <1000) | 1421 | 1.30 nmol/mg × min^−1 | 
3 | Man-9#aa Man9-aminoacid [Glycan 145] |  |  |  | 2G12 binding on glycan array [1]: smaller level of binding
4 | Oligomannose 3 |  |  |  | inhibition (%) of 2G12 binding to gp120 [3]: 15.8%
5 | CC(=O)N[C@H]1C(O)O[C@H](CO)[C@H](O)[C@@H]1O (stereo partly drawn) [D-GalNAc, reference compound] |  |  | 0.00 nmol/mg × min^−1 | 
6 | Manα1,2Manα1,3Manα1,2 Manα1,6Man |  |  |  | 2G12 epitope / affinity [4]: optimal epitope(s) with micromolar affinity to 2G12
7 | OCC1O[C@@H](O)C(O)[C@@H](O)[C@@H]1O[C@@H]1OC(CO)[C@H](O)[C@H](O)C1O (some centres unmarked) [Compound 4] | − (− = <1000) | 3043 | 2.90 nmol/mg × min^−1 | 
8 | CC(=O)N[C@H]1C(O)O[C@H](CO)[C@@H](O[C@@H]2O[C@H](CO)[C@H](O)[C@H](O)[C@H]2O)[C@@H]1O (some centres unmarked) [Compound 6] | − (− = <1000) | 13277 | 12.50* nmol/mg × min^−1 | 
9 | Manα1,2 Manα1,2Manα1,3Man |  |  |  | Kd ([4]; binding to 2G12, cleavable linker array): 100 nM; 2G12 epitope / affinity [4]: optimal epitope(s) with micromolar affinity to 2G12
10 | NCCCCCO[C@H]1O[C@H](CO[C@H]2O[C@H](CO)[C@@H](O)[C@H](O)[C@@H]2O[C@H]2O[C@H](CO)[C@@H](O)[C@H](O)[C@@H]2O)[C@@H](O)[C@H](O[C@H]2O[C@H](CO)[C@@H](O)[C@H](O)[C@@H]2O[C@H]2O[C@H](CO)[C@@H](O)[C@H](O)[C@@H]2O)[C@@H]1O [Oligomannose 5] |  |  |  | 2G12 binding affinity [5]: greatest affinity
